Columns and labels:
CD34+ cells [1] = experiment: NK cell expansion in three-stage NK culture with compound; assay type: cell-based, human; details: for support of NK (PNK-007) expansion: compound at 10 μM during the first 14 days, 35-day culture; for NK cell expansion compared to SR1: compound and SR1 at 10 μM, Day 35; for expansion, differentiation and cytotoxicity profiles compared to SR1: PNK-007 culture
From the text: (§1) UCB CD34+ cells were cultivated in presence of cytokines including thrombopoietin, SCF, Flt3 ligand, IL-7, IL-15 and IL-2 for 35 days to produce three-stage NK cells, as described in Example 1. Multi-color flow cytometry was used to determine the phenotypic characteristics of three-stage NK cells.
(§2) For biological testing, the compounds were provided to culture to evaluate their effects on NK cell expansion and differentiation. Specifically, donors of CD34^+ cells (StemCell Technology) were thawed and expanded in vitro following NK culture protocol. During the first 14 days of the culture, each CRL compounds was dissolved in DMSO and added to the culture at 10 μM concentration. SR1 (at 10 μM) served as a positive control compound, while DMSO alone without any compound served as a negative control. At the end of the culture on Day 35, cell expansion, natural killer (NK) cell differentiation and cytotoxicity of the cells against K562 tumor cell line were characterized. Due to the large number of the compounds, the testing was performed in two experiments, CRL1-11 and CRL 12-22. The same donors were used for each experiment. Positive and negative controls were also included in both experiments.

K562 tumor cells = experiment: Cytotoxicity assay of compound cultured cells against K562; assay type: cell-based; details: K562, 10:1 effector to target ratio
Protocol: as §2
Cytotoxicity assay was run using compound cultured cells against K562 tumor cells at 10:1 effector to target ratio (FIG. 5) to evaluate cell functions.

CD34+ cells [2] = experiment: NK cell differentiation of compound cultured cells (flow cytometry); assay type: cell-based, human; details: PNK-007 culture
From the text: as §1, §2

CD34 cells = experiment: CD34 cell expansion at Day 14 of the culture; assay type: cell-based, human; details: compound at 10 μM
Protocol: as §2

Row | SMILES | support of NK (PNK-007) expansion (CD34+ cells [1]) | NK cell expansion compared to SR1 (CD34+ cells [1]) | killing activities compared to cells cultured with SR1 (K562 tumor cells) | CD56+/CD11a+ subpopulation compared to SR1 (CD34+ cells [2]) | expansion, differentiation and cytotoxicity profiles compared to SR1 (CD34+ cells [1]) | CD34 cell expansion (CD34 cells)
1 | CCC(C)Nc1cc(-c2cncc(C#N)c2)nc(NCCc2c[nH]c3ccccc23)n1 (centres unmarked) [CRL7, 5-(2-((2-(1H-indol-3-yl)ethyl)amino)-6-(sec-butylamino)pyrimidin-4-yl)nicotinonitrile] | all the compounds except CRL7 and CRL13 supported PNK-007 expansion and differentiation |  |  |  |  | 
2 | CCC(C)Nc1nc(NCCc2c[nH]c3ccccc23)c2ccccc2n1 (centres unmarked) [CRL13, N^4-(2-(1H-indol-3-yl)ethyl)-N^2-(sec-butyl)quinazoline-2,4-diamine] | all the compounds except CRL7 and CRL13 supported PNK-007 expansion and differentiation |  |  |  |  | 
3 | CC(C)c1csc2c(NCCc3c[nH]c4ccccc34)nc(-c3cncc(C#N)c3)nc12 [CRL17, 5-(4-((2-(1H-indol-3-yl)ethyl)amino)-7-isopropylthieno[3,2-d]pyrimidin-2-yl)nicotinonitrile] |  | slightly less expansion compared to SR1 | increased killing activities of the cells | increased CD56+/CD11a+ subpopulation |  | 
4 | CC(C)c1csc2c(NCCc3c[nH]c4ccccc34)nc(-c3cncc(F)c3)nc12 [CRL18, N-(2-(1H-indol-3-yl)ethyl)-2-(5-fluoropyridin-3-yl)-7-isopropylthieno[3,2-d]pyrimidin-4-amine] |  | slightly less expansion compared to SR1 | increased killing activities of the cells | increased CD56+/CD11a+ subpopulation |  | 
5 | Fc1cncc(-c2nc(NCCc3c[nH]c4ccccc34)c3occc3n2)c1 [CRL19, N-(2-(1H-indol-3-yl)ethyl)-2-(5-fluoropyridin-3-yl)furo[3,2-d]pyrimidin-4-amine] | supported cell expansion the best |  |  |  | very similar expansion, differentiation and cytotoxicity profiles as SR1 | highest CD34 cell expansion
6 | Cc1cncc(-c2nc(NCCc3c[nH]c4ccccc34)c3occc3n2)c1 [CRL20, N-(2-(1H-indol-3-yl)ethyl)-2-(5-methylpyridin-3-yl)furo[3,2-d]pyrimidin-4-amine] | supported cell expansion the best |  |  |  | very similar expansion, differentiation and cytotoxicity profiles as SR1 | highest CD34 cell expansion
7 | Cc1cncc(-c2nc(NCCc3c[nH]c4ccccc34)c3scc(C(C)C)c3n2)c1 [CRL21, N-(2-(1H-indol-3-yl)ethyl)-7-isopropyl-2-(5-methylpyridin-3-yl)thieno[3,2-d]pyrimidin-4-amine] |  | slightly less expansion compared to SR1 | increased killing activities of the cells | increased CD56+/CD11a+ subpopulation |  | 
8 | N#Cc1cncc(-c2nc(NCCc3c[nH]c4ccccc34)c3occc3n2)c1 [CRL22, 5-(4-((2-(1H-indol-3-yl)ethyl)amino)furo[3,2-d]pyrimidin-2-yl)nicotinonitrile] | supported cell expansion the best |  |  |  | very similar expansion, differentiation and cytotoxicity profiles as SR1 | highest CD34 cell expansion

Source: patent US20230355759A1, “POPULATIONS OF NATURAL KILLER CELLS COMPRISING A CLEAVAGE RESISTANT CD16” (CELULARITY INC., priority 2019, published 2023)
